Reference: US20250171462A1 (NICO Therapeutics, Inc., priority 2022, published 2025)
Where two headings read alike, the source gives them in different places.

Molecular target: T1, full-length SARM1 (FL-SARM1) (Homo sapiens, UniProt Q6SZW1)
T1 sequence (Q6SZW1 28-724): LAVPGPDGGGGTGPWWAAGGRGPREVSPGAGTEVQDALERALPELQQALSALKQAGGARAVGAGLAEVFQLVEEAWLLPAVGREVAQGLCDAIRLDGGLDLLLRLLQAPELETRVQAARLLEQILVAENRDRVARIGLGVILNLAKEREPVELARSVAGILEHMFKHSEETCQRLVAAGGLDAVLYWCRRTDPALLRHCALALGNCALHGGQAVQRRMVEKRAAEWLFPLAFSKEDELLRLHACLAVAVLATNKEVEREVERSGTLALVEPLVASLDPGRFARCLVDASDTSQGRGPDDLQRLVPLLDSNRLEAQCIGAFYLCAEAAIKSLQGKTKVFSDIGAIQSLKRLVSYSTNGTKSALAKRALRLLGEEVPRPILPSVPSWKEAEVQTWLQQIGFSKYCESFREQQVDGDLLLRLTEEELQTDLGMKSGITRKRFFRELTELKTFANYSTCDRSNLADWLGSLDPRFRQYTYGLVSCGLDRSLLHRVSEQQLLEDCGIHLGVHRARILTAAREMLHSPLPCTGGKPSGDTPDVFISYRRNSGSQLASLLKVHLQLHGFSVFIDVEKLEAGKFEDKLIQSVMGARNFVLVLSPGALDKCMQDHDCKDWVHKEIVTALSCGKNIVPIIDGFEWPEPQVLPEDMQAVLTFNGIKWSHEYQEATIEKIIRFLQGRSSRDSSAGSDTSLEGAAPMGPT
Experiment: FL-SARM1 cellular lysate assay (NAD/NADH-Glo detection of remaining NAD+, NMN-activated)

[1] = Activity (IC50 class), 11 point curve
[2] = Activity (μM) (IC50), 11 point curve

Structure (SMILES) | IC50 [1] [µM] | IC50 [2] [µM] | IC50 (read-out: Activity (IC50 class), 11 point curve) [µM]
Cc1ccc(NC(=O)[C@H]2[C@@H]3CC[C@@H](C3)N2c2ncccn2)cc1-c1ncc(F)cn1 [Example 322] | > 10 | 13 | 
C[C@@H]1C[C@@H]2C[C@H](C1)N2C(=O)Nc1cc(-c2nccnn2)c(Cl)cc1F [Example 323] |  | 0.2 | 0.0001 to 1
CO[C@@H]1C[C@H](C(=O)Nc2ccc(C)c(-c3ncc(F)cn3)c2)N(c2ncccn2)C1 [Example 324] | > 10 | 17 | 
Cc1ccc(NC(=O)[C@@H]2C[C@@H]3C[C@@H]3C2)cc1-c1ncc(F)cn1 [Example 325] | 1 to 10 | 1.2 | 
Cc1ccc(NC(=O)N2C3CCCC2C3)cc1-c1ncc(F)c(C)n1 [Example 326] | 1 to 10 | 1.4 | 
Cc1ccc(NC(=O)OCC2CC2)cc1-c1ncccn1 [Example 328] | > 10 | 31 | 
